The source made the active and inactive calls.
How the values were obtained:
Cytochrome P450 1A2 = target: T1, Cytochrome P450 1A2 (Homo sapiens, UniProt P05177);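 also: PubChem cytochrome P450 panel assay, CYP1A2 panel member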
T1 sequence (P05177 whole entry): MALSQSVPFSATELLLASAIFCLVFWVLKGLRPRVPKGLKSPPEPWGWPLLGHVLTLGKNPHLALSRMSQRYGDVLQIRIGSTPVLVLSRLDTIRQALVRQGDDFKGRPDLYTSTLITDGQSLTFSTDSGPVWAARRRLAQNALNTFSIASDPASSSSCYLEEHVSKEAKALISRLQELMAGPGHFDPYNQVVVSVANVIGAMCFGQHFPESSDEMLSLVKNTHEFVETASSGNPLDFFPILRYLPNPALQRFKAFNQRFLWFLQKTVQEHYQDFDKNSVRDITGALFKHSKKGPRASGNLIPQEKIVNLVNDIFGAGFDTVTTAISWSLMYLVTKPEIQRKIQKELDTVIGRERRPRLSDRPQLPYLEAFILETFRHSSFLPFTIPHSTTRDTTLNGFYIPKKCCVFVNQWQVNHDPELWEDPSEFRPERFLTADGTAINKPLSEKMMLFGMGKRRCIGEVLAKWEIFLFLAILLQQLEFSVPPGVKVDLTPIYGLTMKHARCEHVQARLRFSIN

Cytochrome P450 2C19 = Cytochrome P450 2C19 (Homo sapiens, UniProt P33261); test: Cytochrome panel assay with activity outcomes. Panel member name: p450-cyp2c19 Compounds with AC50 equal or less than 10 uM are considered active; format: functional; conditions: read-out: AC50
Cytochrome P450 2C19, sequence (P33261 whole entry): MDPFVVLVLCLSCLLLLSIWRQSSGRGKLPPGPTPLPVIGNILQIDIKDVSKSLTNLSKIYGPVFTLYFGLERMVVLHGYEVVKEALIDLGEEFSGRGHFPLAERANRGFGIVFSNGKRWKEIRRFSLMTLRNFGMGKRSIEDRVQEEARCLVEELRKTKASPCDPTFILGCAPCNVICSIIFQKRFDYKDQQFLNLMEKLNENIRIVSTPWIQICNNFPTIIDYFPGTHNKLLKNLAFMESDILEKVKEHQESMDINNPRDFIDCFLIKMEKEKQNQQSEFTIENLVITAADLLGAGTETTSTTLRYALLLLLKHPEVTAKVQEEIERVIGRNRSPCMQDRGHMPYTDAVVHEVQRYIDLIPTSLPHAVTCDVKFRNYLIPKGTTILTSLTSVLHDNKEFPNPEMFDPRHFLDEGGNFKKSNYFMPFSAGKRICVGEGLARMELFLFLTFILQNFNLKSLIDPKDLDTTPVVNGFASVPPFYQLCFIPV

Cytochrome P450 3A4 = Cytochrome P450 3A4 (Homo sapiens, UniProt P08684);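 also: CYP3A4 tested as one member of a cytochrome P450 panel screen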
Cytochrome P450 3A4, sequence (P08684 whole entry): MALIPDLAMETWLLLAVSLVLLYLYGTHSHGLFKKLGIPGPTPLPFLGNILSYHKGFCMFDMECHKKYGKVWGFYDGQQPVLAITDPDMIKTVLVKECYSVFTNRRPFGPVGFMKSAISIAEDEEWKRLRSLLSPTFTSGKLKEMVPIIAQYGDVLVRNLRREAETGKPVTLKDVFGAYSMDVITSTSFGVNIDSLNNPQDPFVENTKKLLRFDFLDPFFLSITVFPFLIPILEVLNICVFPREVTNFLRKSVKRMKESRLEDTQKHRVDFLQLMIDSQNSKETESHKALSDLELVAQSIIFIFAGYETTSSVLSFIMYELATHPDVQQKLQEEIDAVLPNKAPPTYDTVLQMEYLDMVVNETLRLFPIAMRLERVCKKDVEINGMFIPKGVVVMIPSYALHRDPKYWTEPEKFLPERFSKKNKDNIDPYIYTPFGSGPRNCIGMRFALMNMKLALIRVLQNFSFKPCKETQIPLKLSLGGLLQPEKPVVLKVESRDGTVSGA

Cytochrome P450 2C9 = Cytochrome P450 2C9 (Homo sapiens, UniProt P11712)
Cytochrome P450 2C9, sequence (P11712 whole entry): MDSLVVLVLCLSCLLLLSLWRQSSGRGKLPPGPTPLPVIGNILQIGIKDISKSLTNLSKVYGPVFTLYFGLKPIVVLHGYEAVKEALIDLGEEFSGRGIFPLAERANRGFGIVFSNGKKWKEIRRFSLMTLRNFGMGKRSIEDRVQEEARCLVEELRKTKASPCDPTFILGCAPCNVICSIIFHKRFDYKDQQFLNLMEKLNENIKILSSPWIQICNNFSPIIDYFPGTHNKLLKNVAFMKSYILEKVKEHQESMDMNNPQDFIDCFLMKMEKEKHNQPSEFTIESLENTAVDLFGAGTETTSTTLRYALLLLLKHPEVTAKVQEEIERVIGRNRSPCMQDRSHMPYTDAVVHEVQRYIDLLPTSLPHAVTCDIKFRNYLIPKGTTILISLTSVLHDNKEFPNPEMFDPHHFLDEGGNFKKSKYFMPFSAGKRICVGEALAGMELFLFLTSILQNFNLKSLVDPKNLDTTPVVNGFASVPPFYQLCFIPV

[1] = target: T2, Zinc finger protein mex-5 (Caenorhabditis elegans, UniProt Q9XUB2); test: potency of MEX-5 RNA-binding blockers – biochemical, C. elegans, fluorescence polarization, dose response (AID 1960)
T2 sequence (Q9XUB2 whole entry): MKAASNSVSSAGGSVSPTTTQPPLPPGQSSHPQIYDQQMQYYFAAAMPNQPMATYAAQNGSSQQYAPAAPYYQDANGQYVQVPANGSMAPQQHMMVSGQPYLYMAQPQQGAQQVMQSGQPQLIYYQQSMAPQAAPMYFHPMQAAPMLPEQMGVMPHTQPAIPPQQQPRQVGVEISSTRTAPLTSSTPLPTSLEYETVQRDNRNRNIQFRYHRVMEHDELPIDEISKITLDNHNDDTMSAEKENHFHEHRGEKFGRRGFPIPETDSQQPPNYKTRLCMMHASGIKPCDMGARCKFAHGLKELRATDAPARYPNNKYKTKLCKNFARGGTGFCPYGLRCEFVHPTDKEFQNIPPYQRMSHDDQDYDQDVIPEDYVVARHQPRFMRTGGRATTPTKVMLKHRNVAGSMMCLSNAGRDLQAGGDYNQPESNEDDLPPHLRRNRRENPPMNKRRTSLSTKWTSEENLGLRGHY

[2] = target: T3, RNA-binding protein pos-1 (Caenorhabditis elegans, UniProt G5EF15); test: disruptors of C. elegans POS-1 RNA interaction – biochemical, fluorescence polarization, dose response (AID 1964);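 also: purified POS-1 fused to maltose binding protein made in E. coli; potency of compounds blocking POS-1 binding to fluorescent RNA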
T3 sequence (G5EF15 whole entry): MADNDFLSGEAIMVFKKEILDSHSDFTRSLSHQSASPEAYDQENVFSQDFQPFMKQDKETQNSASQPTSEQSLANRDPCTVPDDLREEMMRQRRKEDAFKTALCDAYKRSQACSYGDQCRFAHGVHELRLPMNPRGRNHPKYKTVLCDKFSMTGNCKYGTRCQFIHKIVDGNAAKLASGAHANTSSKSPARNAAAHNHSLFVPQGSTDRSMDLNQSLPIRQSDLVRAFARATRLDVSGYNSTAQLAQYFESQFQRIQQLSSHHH

[3] = target: T4, Heat shock factor protein 1 (Mus musculus, UniProt P38532); test: enhancement of HSF1-driven luciferase signal – cell-based, NIH3T3, luminescence, dose retest, confirmation (AID 435004); format: functional;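 also: stress induced by proteasome inhibitor MG132 added 30 min after compound; luciferase reporter driven by HSF1 response element in NIH3T3 cells; actives raise luminescence as potentiators of the MG132 stress response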
T4 sequence (P38532 whole entry): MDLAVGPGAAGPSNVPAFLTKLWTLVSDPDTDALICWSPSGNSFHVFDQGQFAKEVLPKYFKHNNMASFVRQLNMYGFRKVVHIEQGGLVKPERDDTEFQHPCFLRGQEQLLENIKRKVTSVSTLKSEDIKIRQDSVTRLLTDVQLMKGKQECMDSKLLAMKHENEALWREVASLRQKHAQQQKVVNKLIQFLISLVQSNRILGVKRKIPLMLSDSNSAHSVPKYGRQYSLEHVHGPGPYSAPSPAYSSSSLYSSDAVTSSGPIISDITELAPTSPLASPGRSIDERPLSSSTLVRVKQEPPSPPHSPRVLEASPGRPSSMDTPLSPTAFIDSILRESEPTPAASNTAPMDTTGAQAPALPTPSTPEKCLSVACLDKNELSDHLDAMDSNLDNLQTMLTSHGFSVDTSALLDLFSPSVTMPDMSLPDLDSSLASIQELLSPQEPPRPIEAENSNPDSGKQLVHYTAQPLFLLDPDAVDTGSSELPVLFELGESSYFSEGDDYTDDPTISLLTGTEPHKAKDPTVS

H4 = test: Luminescence Cell-Based Dose Response HTS to Identify Activators of 5'UTR Stem-Loop Driven Prion Protein mRNA Translation in H4 Neuroglioblastoma Cells. [Related pubchem assays: 1829 (Project Summary), 1814 (Primary HTS)]; format: functional; conditions: Homo sapiens

O=C(NC1CCCCC1)C(c1cccs1)N(C(=O)C(F)(F)F)c1ccccc1 (stereo not given)
AC50 (Cytochrome P450 1A2): 2.51 µM (inconclusive)

Clc1ccccc1-c1cc(NCCN2CCOCC2)ncn1
AC50 (Cytochrome P450 1A2): 31.6 µM (inconclusive) | AC50 (Cytochrome P450 2C19): 25.1 µM (inconclusive)

COCCn1c(=O)c(C)nc2cnc(OC)nc21
AC50 (Cytochrome P450 3A4): 31.6 µM (inconclusive)

COc1cc(-c2ccc(/N=N\c3ccc4c(S(=O)(=O)O)cc(S(=O)(=O)O)c(N)c4c3O)c(OC)c2)ccc1/N=N\c1ccc2c(S(=O)(=O)O)cc(S(=O)(=O)O)c(N)c2c1O
AC50 (Cytochrome P450 2C9): 10 µM (inconclusive) | AC50 (Cytochrome P450 3A4): 10 µM (inconclusive)

O=c1c(-c2ccc(F)cc2)nc2cnc(Oc3cccc(Cl)c3)nc2n1C[C@H]1CCCO1
AC50 (Cytochrome P450 2C19): 39.8 µM (inconclusive) | AC50 (Cytochrome P450 3A4): 12.6 µM (inconclusive)

Cc1cc(NC(=O)c2c([N+](=O)[O-])cnn2C)no1
AC50 (Cytochrome P450 2C9): 39.8 µM (inconclusive) | AC50 (Cytochrome P450 3A4): 25.1 µM (inconclusive)

CC1(OC(=O)c2cnc3ccccc3n2)C(=O)C=C2C=C(c3ccc(C#N)cc3)OC=C2C1=O (stereo not given)
EC50 [1]: 44.9 µM (active) | EC50 [2]: 39.8 µM (active)

COC(=O)CCCC1=CC2=CC(=O)C(C)(OC(=O)c3ccc(Cl)nc3)C(=O)C2=CO1 (stereo not given)
EC50 [1]: 18.8 µM (active) | EC50 [2]: > 150 µM (not active)

CC(C)OC(=O)c1ccc(COc2ccc3ccc(=O)oc3c2)o1
EC50 [3]: 66.6 µM (active)

Cc1ccc(S(=O)(=O)C(C#N)c2nc3ccccc3nc2N2CC(C)OC(C)C2)cc1C (stereo not given)
EC50 [1]: 26.1 µM (inconclusive) | EC50 [2]: 4.67 µM (inconclusive)

COc1ccc(-n2c(=O)c3c4c(sc3n(CC(N)=O)c2=O)CCCCC4)cc1
EC50 [3]: > 260 µM (inactive)

O=c1[nH]c(=O)n([C@H]2C[C@H](O)[C@H](CO)O2)cc1/C=C\Br
AC50 (Cytochrome P450 1A2): 31.6 µM (inconclusive) | AC50 (Cytochrome P450 3A4): 20 µM (inconclusive)

CC(C)(C)OC(=O)N1CSC[C@H]1C(=O)NC[C@H](CC(=O)O)c1ccc(Cl)cc1
EC50 [3]: > 260 µM (inactive)

COc1cccc(N/C(SCc2cccc([N+](=O)[O-])c2)=C(/C#N)C(=O)NCc2cccs2)c1
EC50 [3]: > 260 µM (inactive)

Cc1cccc(C2C3=C(CCCC3=O)N=C3c4ccccc4C(=O)C32)c1 (stereo not given)
EC50 [3]: 26.1 µM (active)

COc1ccccc1C(=O)CSc1nnc(-c2ccco2)o1
EC50 [3]: 65 µM (active)

O=C(NC1CC1)c1cccc(Nc2ccc(-c3ccc4c(c3)OCCO4)nn2)c1
EC50 (H4): 52.2 µM (active)

CN(C)C(=O)c1ccc(-c2cc(NCc3cccnc3)ncn2)cc1
AC50 (Cytochrome P450 1A2): 20 µM (inconclusive)

Cc1ccc(-c2nc3ccccc3[nH]2)cc1NC(=O)c1ccc2c(c1)OCO2
EC50 [3]: 70.2 µM (active)

COCC1C2CC[C@H]3C(OCc4ccc(OC)cc4)OC[C@]4(C)[C@H]3C2=C(CN4C(=O)OC(C)(C)C)[C@H](C)C1COC (stereo not given in full)
AC50 (Cytochrome P450 2C9): 15.8 µM (inconclusive) | AC50 (Cytochrome P450 1A2): 15.8 µM (inconclusive)

O=C1NC(=O)N(CCc2ccccc2)C(=O)/C1=C/NNC(=O)c1ccccc1
EC50 [1]: > 150 µM (not active) | EC50 [2]: 40.2 µM (active)

Cc1ccc(C)c(NC2CCCCC2NS(=O)(=O)c2ccccc2)c1 (stereo not given)
EC50 [3]: > 260 µM (inactive)

CC1(OC(=O)c2ccco2)C(=O)C=C2C=C(c3ccsc3)OC=C2C1=O (stereo not given)
EC50 [1]: 23.1 µM (active) | EC50 [2]: > 300 µM (not active)

CCCNC(=O)NC(=O)CSc1cccc(C(F)(F)F)c1
EC50 [3]: > 260 µM (inactive)
